The values that follow come from patent publication US10993920B2, “2-dodecyl-6-methoxycyclohexa-2,5-diene-1,4-dione as a cancer therapeutic” (MIDDLE TENNESSEE STATE UNIVERSITY, priority 2014, dated 2021).

Broadly, the IC50 is the concentration that inhibits the measured activity by half. Low values mean inhibition by little substance, high ones a need for much substance.

Series [1] relates to MCF-7. Nature of the series: Oxidative stress determination (DHE, HCS). The class given is cell-based, human. Particulars: 48 h. On the procedure:
MCF-7 and BT20 cells were seeded in a 96-well tissue culture-treated plate (Corning Costar) at a density of 8,000 cells/well and were subsequently treated with different concentrations (10, 32, 100 μM) of DMDD for 48 h. Non-treated cells served as negative control, and cells treated with 1 μM Retenone served as positive control. Afterwards, the cells were stained with Hoechst 33342 (Thermo Scientific) and dihydroethidium (DHE) (Sigma), fixed and evaluated on an ArrayScan VTI HCS Reader (Thermo Scientific). The generation of ROS in cells was quantified by the oxidation of non-fluorescent DHE to fluorescent ethidium, which subsequently binds to DNA. The Nuclear Translocation BioApplication software (Thermo Scientific) was used for image acquisition and analysis. For each well, at least 400 cells were automatically acquired and analyzed. Oxidative stress activation was assessed by the DHE staining in the nucleus and measured by the average intensity of fluorescent ethidium in the identified nuclear region (MEAN_CircAvgIntenCh2).

For series [2], the system named is MCF-7. The series can be described thus: Anti-proliferation assay (PrestoBlue) and IC50 determination. The class given is cell-based, human. How it is done:
(§1) BT20 and MCF-7, human breast carcinoma cell lines (ATCC), were maintained in RPMI 1640 and Dulbecco's Modified Eagle Medium (DMEM) (Sigma), respectively. THP-1, a human monocytic leukemic cell line (ATCC), was maintained in RPMI 1640. HMEC, a normal human mammary epithelial cell line (ATCC), was maintained in McCoy's 5A (ATCC). All mediums were supplemented with 10% fetal bovine serum (FBS) (Gibco) and 1% penicillin-streptomycin and all cells were incubated in a humidified atmosphere with 5% CO2 at 37° C.
(§2) The proliferation inhibition potential of DMDD was determined in human breast cancer cell lines MCF-7 and BT20 by a fluorescence dye staining method with the normal cell line HMEC serving as a control. Cells were seeded at a density of 4˜5×10^3 cells/well in a 96-well tissue culture-treated plate (Corning Costar) and were incubated overnight. They were then treated with DMDD at final concentrations of 320 μM, 100 μM, 32 μM, 10 μM, 3.2 μM, 1 μM, and 0.32 μM. An experimental control with cells only was also included. After incubation for 48 h, the viability of cells was assessed using PrestoBlue dye (Invitrogen) according to manufacturer's protocol. The fluorescence intensity was measured on a SpectraMax M2e microplate reader (Molecular Devices, Inc.) at a fluorescent excitation wavelength of 555 nm and emission wavelength of 590 nm. The results were expressed as a percentage, relative to untreated control cells, and the half maximal inhibitory concentration (IC50) values were calculated using non-linear regression analysis.

In series [3] the test system is BT20. The description is as above. The class given is cell-based, human. How it is done:
as §1, §2

Series [4] deals with caspase-3, -8, -9 expression in pancreas tissue. Conditions: pancreas tissue of mice; cited from earlier work.
Series [5] has as its system MCF-7. The series can be described thus: Apoptosis assay (Annexin V/7-AAD). The class given is cell-based, human. Conditions: MCF-7, 48 h, concentration-dependent. On the procedure: (§3) MCF-7 and BT20 cells were seeded in a 96-well plate (Corning Costar) at a density of 8,000 cells/well and were subsequently treated with different concentrations (10, 32, 100 μM) of DMDD for 48 h. Afterwards, the cells were stained with Annexin V (Millipore) and 7-Aminoactinomycin (7-AAD) (Millipore), and analyzed on a Guava flow cytometer using InCyte software (Millipore).

Series [6] deals with BT20. The series can be described thus: Apoptosis assay (Annexin V/7-AAD). Format: cell-based, human. Conditions: BT20, 48 h, concentration-dependent. How it is done: as §3
Series [7] concerns caspase 3/7 in MCF-7 cells. Nature of the series: Caspase-Glo 3/7 activation assay. Format: cell-based, human. Conditions: MCF-7, 4 h, concentration-dependent. On the procedure: Caspase 3/7 and caspase 8 activities were analyzed using an in-situ luminescent maker in MCF-7 and BT20 cells respectively. […] Caspases activity was then determined using the Caspase-Glo 3/7 Assay (Promega) or the Caspase-Glo 8 Assay (Promega) according to the manufacturer's instructions. Briefly, cells were incubated with Caspase-Glo 3/7 substrate or Caspase-Glo 8 substrate and the luminescence of each sample was measured using a SpectraMax M2e Microplate Reader (Molecular Devices).

Series [8] deals with caspase 3/7 in BT20 cells. The series can be described thus: Caspase-Glo 3/7 activation assay. Format: cell-based, human. Particulars: BT20, 4 h, concentration-dependent.
Series [9] relates to MCF-7. Nature of the series: Cell cycle analysis (PI staining). The class given is cell-based, human. Particulars: MCF-7, 24 h; increased from 52%; not concentration-dependent. How it is done: (§4) MCF-7 and BT20 cells were first synchronized in the G0 phase by culturing cells for 24 h in serum-free medium, and then treated with 100 μM DMDD for 24 h. Cell cycle analysis was performed using propidium iodide (PI) (Millipore) staining as described (27). Cells were analyzed using a Guava flow cytometer with InCyte software (Millipore).

Series [10] has as its system BT20. Nature of the series: Cell cycle analysis (PI staining). Format: cell-based, human. Particulars: BT20, 24 h; increased from 46%; not concentration-dependent. On the procedure:
as §4

The conditions of series [11]: diabetic mouse model; cited from earlier work.
In series [12] the test system is MCF-7. The series can be described thus: Multi parameter cytotoxicity measurement (HCS). Particulars: MCF-7, 48 h, dose-dependent. Format: cell-based, human. On the procedure:
(§5) MCF-7 and BT20 cells were seeded in a 96-well plate (Corning Costar) at a density of 4,000 cells/well and subsequently treated with different concentrations (10, 32, 100 μM) of DMDD for 48 h. Non-treated cells and cells treated with 100 μM Valinomycin were used as negative (control) and positive controls, respectively. Afterwards, the cells were stained with a mixture of fluorescent dyes including Hoechst 33342, cell permeability dye and mitochondrial membrane potential dye (Thermo Scientific). These dyes indicated changes in nuclear morphology (Channel 1), cell membrane permeability (Channel 2) and mitochondrial transmembrane potential (Channel 3), respectively. The cells were fixed and washed, and images for each fluoroprobe were acquired at different channels using suitable filters with a 20× objective and analyzed on the Arrayscan VTI HCS Reader (Thermo Scientific). The Cell Health Profiling BioApplication (Thermo Scientific) was used for image acquisition and analysis. For each well, at least 400 cells were automatically acquired and analyzed. The average fluorescent intensity was used to quantify changes in each channel.

Series [13] relates to BT20. The series can be described thus: Multi parameter cytotoxicity measurement (HCS). Format: cell-based, human. On the procedure: as §5
For series [14] the following is noted: single dose 5,000 mg/kg body weight; cited from earlier work.

Turning to `CCCCCCCCCCCCC1=CC(=O)C=C(OC)C1=O` [DMDD, 2-dodecyl-6-methoxycyclohexa-2,5-diene-1,4-dione], the “ROS level versus untreated control” value is recorded as “nearly two-fold” with MCF-7 [1] (MCF-7, 10 μM) and “nearly two-fold” with MCF-7 [1] (MCF-7, 100 μM). For the same compound, in the series on MCF-7 [1] (MCF-7, 33 μM), the “ROS level versus non-treated control” value is on record as “nearly three-fold”. Further, the 50% inhibitory concentration (IC50) with MCF-7 [2] (Homo sapiens, MCF7, MCF-7, 48 h treatment) turned out to be 3.44 µM; in the series with BT20 [3] (Homo sapiens, BT-20, BT20, 48 h treatment), 5.03 µM. In addition, the cell death with MCF-7 [2] (MCF-7, 3.2 μM) came out at 49.9%; in the series with MCF-7 [2] (MCF-7, 10 μM), 84.5%; in the series on BT20 [3] (BT20, 3.2 μM) it was 43.8%; in the series with BT20 [3] (BT20, 10 μM), 63.5%. In addition, the “caspase-3, -8, -9 expression” value in [4] is reported as “significantly reduced”. The apoptosis induction entry in the series with MCF-7 [5] and with BT20 [6] was “induced apoptosis” each time. In addition, the “caspase 3/7 activity vs untreated cells” value in series [7] and in series [8] was “increased significantly” throughout. For the same compound, the figures for the “percentage of G1 phase cells” value with MCF-7 [9] and in the series on BT20 [10] were 71% and 65%, respectively. Moreover, the effective dosage in series [11] was 12.5 to 25 mg/kg. Moreover, the mitochondrial membrane potential entry in the series with MCF-7 [12] was “loss of mitochondrial potential”; in the series with BT20 [13] (BT20, 48 h, dose-dependent), “loss of mitochondrial potential”. Moreover, the plasma membrane permeability result with MCF-7 [12] is “increased plasma membrane permeability”; in the series on BT20 [13] (BT20, 48 h, dose-dependent), “increased plasma membrane permeability”. Also, in the series on BT20 [13] (BT20, 100 μM, 48 h), the nuclear morphology result is “nuclear condensation”. Besides, in series [14], the acute toxicity result is listed as “did not cause any acute toxicity”.
